Reference: patent US4814455A, “Dihydro-3,5-dicarboxylates” (Bristol-Myers Company, priority 1986, dated 1989)
Structures can show the parent of a compound that is named as a salt. Where two headings read alike, the source gives them in different places.

What was measured:
rat dorsal aorta = rat dorsal aorta (Rattus norvegicus, UniProt P22002); assay: cell-based; conditions: read-out: Calcium Entry Blockade (pA2) (converted)
Source text: Calcium ion entry blockade was studied in various smooth muscle systems such as rat dorsal aorta, portal vein, and trachea.

[1] = test system: globally ischemic rat myocardium; assay: Autolysis: protection of high energy phosphate stores in globally ischemic rat myocardium; set-up: Autolysis (% Protection): concentration or dose not given beside the values; conditions: for Autolysis (% Protection): protection of high energy phosphate stores in globally ischemic rat myocardium
[2] = pA2 = negative log of molar antagonist concentration giving dose ratio of 2, active if 7 or greater

Chain of rat dorsal aorta (P22002 whole entry): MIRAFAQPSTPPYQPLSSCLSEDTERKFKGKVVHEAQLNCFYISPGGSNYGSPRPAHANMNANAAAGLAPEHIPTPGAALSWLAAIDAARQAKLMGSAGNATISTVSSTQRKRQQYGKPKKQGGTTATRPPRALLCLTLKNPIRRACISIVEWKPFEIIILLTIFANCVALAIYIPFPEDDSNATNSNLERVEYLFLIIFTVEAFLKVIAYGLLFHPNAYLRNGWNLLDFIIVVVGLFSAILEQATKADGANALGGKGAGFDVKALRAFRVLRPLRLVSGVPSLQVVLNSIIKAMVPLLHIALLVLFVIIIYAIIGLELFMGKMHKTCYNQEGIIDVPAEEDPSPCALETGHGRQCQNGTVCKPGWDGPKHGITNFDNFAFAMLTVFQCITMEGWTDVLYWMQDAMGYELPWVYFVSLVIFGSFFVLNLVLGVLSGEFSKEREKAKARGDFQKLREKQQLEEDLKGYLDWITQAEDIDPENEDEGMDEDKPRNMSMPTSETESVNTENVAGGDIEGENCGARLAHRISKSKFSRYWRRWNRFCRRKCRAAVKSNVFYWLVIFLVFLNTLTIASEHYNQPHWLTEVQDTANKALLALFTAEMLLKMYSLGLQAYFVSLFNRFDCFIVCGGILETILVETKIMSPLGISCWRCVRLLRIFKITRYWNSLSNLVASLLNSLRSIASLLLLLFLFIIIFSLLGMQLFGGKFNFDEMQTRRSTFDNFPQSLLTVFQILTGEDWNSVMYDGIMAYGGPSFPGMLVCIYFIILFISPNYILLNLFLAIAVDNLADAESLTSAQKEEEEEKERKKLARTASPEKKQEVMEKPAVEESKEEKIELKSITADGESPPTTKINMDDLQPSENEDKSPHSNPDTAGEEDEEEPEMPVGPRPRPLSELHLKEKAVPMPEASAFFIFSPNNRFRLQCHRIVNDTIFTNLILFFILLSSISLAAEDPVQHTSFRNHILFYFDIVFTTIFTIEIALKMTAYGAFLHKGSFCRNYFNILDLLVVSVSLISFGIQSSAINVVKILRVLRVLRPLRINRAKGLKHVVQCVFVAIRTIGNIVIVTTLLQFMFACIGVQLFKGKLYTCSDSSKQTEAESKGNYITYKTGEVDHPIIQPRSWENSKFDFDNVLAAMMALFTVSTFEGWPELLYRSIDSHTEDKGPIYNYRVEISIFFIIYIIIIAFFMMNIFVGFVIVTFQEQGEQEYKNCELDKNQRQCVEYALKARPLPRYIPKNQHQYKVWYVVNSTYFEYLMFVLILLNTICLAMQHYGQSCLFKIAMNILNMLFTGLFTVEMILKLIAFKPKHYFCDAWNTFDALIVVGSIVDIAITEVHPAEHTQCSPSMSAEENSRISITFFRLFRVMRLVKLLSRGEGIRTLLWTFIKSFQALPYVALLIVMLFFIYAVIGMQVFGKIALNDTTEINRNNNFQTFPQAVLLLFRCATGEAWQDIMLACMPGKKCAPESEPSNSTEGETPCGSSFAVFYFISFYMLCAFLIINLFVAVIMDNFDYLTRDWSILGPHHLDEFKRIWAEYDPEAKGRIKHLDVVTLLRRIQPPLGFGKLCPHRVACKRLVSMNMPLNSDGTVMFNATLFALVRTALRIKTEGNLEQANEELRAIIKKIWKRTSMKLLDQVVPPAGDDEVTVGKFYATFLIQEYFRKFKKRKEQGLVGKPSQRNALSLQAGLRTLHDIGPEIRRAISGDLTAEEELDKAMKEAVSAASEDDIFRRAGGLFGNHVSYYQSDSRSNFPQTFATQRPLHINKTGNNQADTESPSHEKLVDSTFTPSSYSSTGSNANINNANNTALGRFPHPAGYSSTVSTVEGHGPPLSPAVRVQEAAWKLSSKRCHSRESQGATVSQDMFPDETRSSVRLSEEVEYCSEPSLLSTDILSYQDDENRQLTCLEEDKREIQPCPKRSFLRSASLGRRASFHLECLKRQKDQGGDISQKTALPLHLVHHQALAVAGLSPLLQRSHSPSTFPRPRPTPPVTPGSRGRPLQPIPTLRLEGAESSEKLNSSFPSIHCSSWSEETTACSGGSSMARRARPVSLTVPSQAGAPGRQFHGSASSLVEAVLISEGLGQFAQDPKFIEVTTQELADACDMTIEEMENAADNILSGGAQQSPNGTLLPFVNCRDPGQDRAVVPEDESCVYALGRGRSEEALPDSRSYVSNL
Chain of rat dorsal aorta (P54290 25-944 partner limits assumed): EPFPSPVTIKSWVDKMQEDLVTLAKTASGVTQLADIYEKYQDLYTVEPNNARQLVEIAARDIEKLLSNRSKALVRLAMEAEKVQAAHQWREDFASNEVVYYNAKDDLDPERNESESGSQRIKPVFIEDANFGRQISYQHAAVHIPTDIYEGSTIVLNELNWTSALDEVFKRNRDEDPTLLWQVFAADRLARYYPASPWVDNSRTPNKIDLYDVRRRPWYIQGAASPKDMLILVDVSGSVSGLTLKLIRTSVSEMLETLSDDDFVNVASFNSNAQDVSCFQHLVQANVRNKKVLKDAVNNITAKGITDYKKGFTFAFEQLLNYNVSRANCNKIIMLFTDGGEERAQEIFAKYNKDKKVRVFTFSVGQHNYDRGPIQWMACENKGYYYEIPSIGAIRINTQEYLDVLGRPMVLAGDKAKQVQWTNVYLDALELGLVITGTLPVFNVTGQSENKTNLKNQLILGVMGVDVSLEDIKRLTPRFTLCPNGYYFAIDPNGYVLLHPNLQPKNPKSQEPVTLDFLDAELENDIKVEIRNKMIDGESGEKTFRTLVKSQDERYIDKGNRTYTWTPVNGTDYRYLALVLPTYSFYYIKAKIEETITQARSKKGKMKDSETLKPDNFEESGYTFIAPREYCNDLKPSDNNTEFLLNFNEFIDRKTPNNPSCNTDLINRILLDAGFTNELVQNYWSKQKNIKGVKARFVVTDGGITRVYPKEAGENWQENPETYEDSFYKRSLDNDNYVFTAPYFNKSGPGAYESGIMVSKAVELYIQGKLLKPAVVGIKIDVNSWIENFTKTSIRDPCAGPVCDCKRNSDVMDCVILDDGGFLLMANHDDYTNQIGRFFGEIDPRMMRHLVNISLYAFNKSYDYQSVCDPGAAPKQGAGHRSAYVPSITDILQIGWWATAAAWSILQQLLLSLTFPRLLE
Chain of rat dorsal aorta (P54290 945-1091 partner limits assumed): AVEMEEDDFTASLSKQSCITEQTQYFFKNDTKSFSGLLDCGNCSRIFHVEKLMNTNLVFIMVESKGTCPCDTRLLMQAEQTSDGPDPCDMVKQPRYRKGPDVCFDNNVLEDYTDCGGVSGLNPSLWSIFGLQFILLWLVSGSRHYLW

CCCCN(CCCOC(=O)C1=C(C)NC(C)=C(C(=O)OC)C1c1cccc([N+](=O)[O-])c1)CCOc1ccccc1 (centres unmarked) [Example 44, [3-[[N-Butyl-N-(2-phenoxyethyl)]amino]propyl]Methyl 1,4-Dihydro-2,6-dimethyl-4-(3-nitrophenyl)-3,5-pyridinedicarboxylate Hydrochloride Hemihydrate]
Kb (rat dorsal aorta; [2]): 0.933 nM | Autolysis (% Protection) [1]: 16%

COC(=O)C1=C(C)NC(C)=C(C(=O)OCCCNCCc2c[nH]c3ccccc23)C1c1cccc([N+](=O)[O-])c1 (centres unmarked) [Example 33]
Kb (rat dorsal aorta; [2]): 0.0316 nM | Autolysis (% Protection) [1]: 35%

COC(=O)C1=C(C)NC(C)=C(C(=O)OCCCN(CCSc2ccccc2)Cc2ccccc2)C1c1cccc([N+](=O)[O-])c1.Cl (centres unmarked) [Example 46, Methyl [3-[N-(Phenylmethyl)-N-[2-(phenylthio)ethyl]amino]propyl] 1,4-Dihydro-2,6-dimethyl-4-(3-nitrophenyl)-3,5-pyridinedicarboxylate Hydrochloride]
Kb (rat dorsal aorta; […], active if 7 or greater): 5.62 nM | Autolysis (% Protection) [1]: 3%

COC(=O)C1=C(C)NC(C)=C(C(=O)OCCCN(CCN(C)c2ccccc2)Cc2ccccc2)C1c1cccc([N+](=O)[O-])c1 (centres unmarked) [Example 45, [3-[[[2-(N-Methyl-N-phenyl)amino]ethyl]-N'-phenylmethyl]propyl]Methyl 1,4-Dihydro-2,6-dimethyl-4-(3-nitrophenyl)-3,5-pyridinedicarboxylate Dihydrochloride Sesquihydrate]
Kb (rat dorsal aorta; [2]): 0.794 nM

COC(=O)C1=C(C)NC(C)=C(C(=O)OCCCNCCSc2ccccc2)C1c1cccc([N+](=O)[O-])c1 (centres unmarked) [Example 42]
Kb (rat dorsal aorta; [2]): 8.32 nM

COC(=O)C1=C(C)NC(C)=C(C(=O)OCCCN(C)CC[S+]([O-])c2ccccc2)C1c1cccc([N+](=O)[O-])c1 (centres unmarked) [Example 47, Methyl [3-[N-Methyl-N-[2-phenylsulfinyl)ethyl]amino]propyl] 1,4-Dihydro-2,6-dimethyl-4-(3-nitrophenyl)-3,5-pyridinedicarboxylate Hydrochloride Hydrate]
Kb (rat dorsal aorta; [2]): 0.251 nM | Autolysis (% Protection) [1]: 21%

COC(=O)C1=C(C)NC(C)=C(C(=O)OC)C1c1ccccc1[N+](=O)[O-] [Nifedipine, 4-(2'-nitrophenyl)-2,6-dimethyl-3,5-dicarbomethoxy-1,4-dihydropyridine, reference compound]
Autolysis (% Protection) [1]: 21%

COC(=O)C1=C(C)NC(C)=C(C(=O)OCCCN(C)CCN(C)c2ccccc2)C1c1cccc([N+](=O)[O-])c1 (centres unmarked) [Example 36]
Kb (rat dorsal aorta; [2]): 0.126 nM | Autolysis (% Protection) [1]: 12%

COC(=O)C1=C(C)NC(C)=C(C(=O)OCCCN(CCSc2ccccc2)CCSc2ccccc2)C1c1cccc([N+](=O)[O-])c1 (centres unmarked) [Example 43]
Kb (rat dorsal aorta; [2]): 2.4 nM | Autolysis (% Protection) [1]: 2%

COC(=O)C1=C(C)NC(C)=C(C(=O)OCCCN(C)CCCSc2ccccc2)C1c1cccc([N+](=O)[O-])c1 (centres unmarked) [Example 40]
Kb (rat dorsal aorta; [2]): 3.63 nM | Autolysis (% Protection) [1]: 23%

COC(=O)C1=C(C)NC(C)=C(C(=O)OCCCN(C)CCSc2ccccc2)C1c1cccc([N+](=O)[O-])c1.Cl (centres unmarked) [Example 34, Methyl [3-[N-Methyl-N-[2-(phenylthio)ethyl]amino]propyl] 1,4-Dihydro-2,6-dimethyl-4-(3-nitrophenyl)-3,5-pyridinedicarboxylate Hydrochloride]
Kb (rat dorsal aorta; […], active if 7 or greater): 0.126 nM | Autolysis (% Protection) [1]: 43%

COC(=O)C1=C(C)NC(C)=C(C(=O)OCCCN(C)CCSc2ccc(C(C)(C)C)cc2C)C1c1cccc([N+](=O)[O-])c1 (centres unmarked) [Example 39]
Kb (rat dorsal aorta; [2]): 14.5 nM | Autolysis (% Protection) [1]: 51%

COC(=O)C1=C(C)NC(C)=C(C(=O)OCCCN(C)CCNc2ccccc2)C1c1cccc([N+](=O)[O-])c1 (centres unmarked) [Example 37]
Kb (rat dorsal aorta; [2]): 0.129 nM | Autolysis (% Protection) [1]: 23%

COC(=O)C1=C(C)NC(C)=C(C(=O)OCCN(C)Cc2ccccc2)C1c1cccc([N+](=O)[O-])c1 (centres unmarked) [Nicardipine, reference compound]
Kb (rat dorsal aorta; [2]): 1.12 nM | anti-ischemia action / protection against autolysis caused by ischemia ([1]; in words, in vitro and in vivo laboratory tests): fails to provide any protection against autolysis caused by ischemia | Autolysis (% Protection) [1]: 0%

COC(=O)C1=C(C)NC(C)=C(C(=O)OCCCN(C)CCN(Cc2ccccc2)c2ccccc2)C1c1cccc([N+](=O)[O-])c1 (centres unmarked) [Example 38]
Autolysis (% Protection) [1]: 16%

COC(=O)C1=C(C)NC(C)=C(C(=O)OCCCNCCNc2ccccc2)C1c1cccc([N+](=O)[O-])c1 (centres unmarked) [Example 32]
Kb (rat dorsal aorta; [2]): 2.95 nM | Autolysis (% Protection) [1]: 0%

COC(=O)C1=C(C)NC(C)=C(C(=O)OCCCNCCOc2ccccc2)C1c1cccc([N+](=O)[O-])c1 (centres unmarked) [Example 35]
Kb (rat dorsal aorta; [2]): 0.468 nM | Autolysis (% Protection) [1]: 21%

COC(=O)C1=C(C)NC(C)=C(C(=O)OCCCN(C)CCSc2ccccc2OC)C1c1cccc([N+](=O)[O-])c1 (centres unmarked) [Example 41]
Kb (rat dorsal aorta; [2]): 2.75 nM
